Measurements from ChEMBL document CHEMBL1150460, “Synthesis and 5-HT3 receptor antagonist potency of novel (endo) 3,9-diazabicyclo[3.3.1]nonan-7-amino derivatives” (Bioorg Med Chem Lett, 1994).

What was measured:
[1] = biological target: T1, Serotonin 3 (5-HT3) receptor (Rattus norvegicus, UniProt P35563+Q9JJ16); test: Displacement of [3H]granisetron from 5-hydroxytryptamine 3 receptor of rat cortex
T1 sequence (P35563 whole entry): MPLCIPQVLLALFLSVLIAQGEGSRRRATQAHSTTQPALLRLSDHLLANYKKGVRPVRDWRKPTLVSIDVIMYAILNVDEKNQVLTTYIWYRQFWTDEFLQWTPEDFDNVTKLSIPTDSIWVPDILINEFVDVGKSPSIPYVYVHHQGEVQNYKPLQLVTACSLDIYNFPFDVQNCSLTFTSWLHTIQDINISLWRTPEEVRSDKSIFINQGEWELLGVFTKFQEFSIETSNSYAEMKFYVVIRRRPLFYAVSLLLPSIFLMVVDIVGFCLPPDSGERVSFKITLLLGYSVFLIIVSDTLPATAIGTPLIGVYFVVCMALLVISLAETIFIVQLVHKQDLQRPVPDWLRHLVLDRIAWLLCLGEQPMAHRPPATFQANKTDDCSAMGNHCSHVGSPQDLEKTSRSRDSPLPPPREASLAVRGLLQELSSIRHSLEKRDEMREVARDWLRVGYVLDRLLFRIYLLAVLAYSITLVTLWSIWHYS
T1 sequence (Q9JJ16 whole entry): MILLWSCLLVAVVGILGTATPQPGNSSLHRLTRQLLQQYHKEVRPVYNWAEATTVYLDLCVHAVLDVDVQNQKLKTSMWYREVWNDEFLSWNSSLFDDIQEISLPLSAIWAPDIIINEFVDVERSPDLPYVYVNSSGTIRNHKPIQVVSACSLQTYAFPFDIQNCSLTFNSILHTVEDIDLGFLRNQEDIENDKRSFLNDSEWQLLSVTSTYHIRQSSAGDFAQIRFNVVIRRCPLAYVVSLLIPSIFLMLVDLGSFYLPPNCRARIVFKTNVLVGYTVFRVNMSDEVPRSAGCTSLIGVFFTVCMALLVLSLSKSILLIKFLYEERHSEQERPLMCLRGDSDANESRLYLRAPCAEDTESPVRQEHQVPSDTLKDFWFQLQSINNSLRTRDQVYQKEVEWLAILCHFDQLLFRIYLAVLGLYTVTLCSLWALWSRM

[2] = biological target: Serotonin 3 (5-HT3) receptor (Rattus norvegicus) (UniProt P35563+Q9JJ16); test: Inhibition of the von Bezold-Jarisch reflex bradycardia induced by an iv bolus injection of 5-HT; type: functional, organism-based

Structure (SMILES)	Ki [1] [nM]	Inhibitory dose [2] [µg/kg]	Inhibition [2] [µg/kg]
CCN1CC2CC(NC(=O)c3nn(C)c4ccccc34)CC(C1)N2C (stereo not drawn)	1.58	0.8	
CN1C2CC(NC(=O)c3nn(C)c4ccccc34)CC1CN(c1ccccc1)C2 (stereo not drawn)		3	
COc1cc(N)c(Cl)cc1C(=O)NC1CC2CN(C)CC(C1)N2C (stereo not drawn)		2.5	
CN1C2CNCC1CC(NC(=O)N1CC(C)(C)c3ccccc31)C2 (stereo not drawn)	1		
CCCN1CC2CC(NC(=O)c3nn(C)c4ccccc34)CC(C1)N2C (stereo not drawn)	3.16		
CCN1CC2CC(NC(=O)N3CC(C)(C)c4ccccc43)CC(C1)N2C (stereo not drawn)	2.51	0.6	
CN1C2CC(NC(=O)N3CC(C)(C)c4ccccc43)CC1CN(C(=O)c1ccccc1)C2 (stereo not drawn)	10		
CN1C2CCCC1CC(NC(=O)c1nn(C)c3ccccc13)C2 (stereo not drawn)		0.7	
CCCCN1CC2CC(NC(=O)c3nn(C)c4ccccc34)CC(C1)N2C (stereo not drawn)	2.51		
CC(=O)N1CC2CC(NC(=O)N3CC(C)(C)c4ccccc43)CC(C1)N2C (stereo not drawn)	3.98		
CN1C2CC(NC(=O)c3nn(C)c4ccccc34)CC1CN(Cc1ccccc1)C2 (stereo not drawn)	0.501	0.16	
CCCCN1CC2CC(NC(=O)N3CC(C)(C)c4ccccc43)CC(C1)N2C (stereo not drawn)	20		
CC(C)N1CC2CC(NC(=O)N3CC(C)(C)c4ccccc43)CC(C1)N2C (stereo not drawn)	1.26	0.43	
COc1cc(N)c(Cl)cc1C(=O)NC1CC2CN(Cc3ccccc3)CC(C1)N2C (stereo not drawn)		0.5	
CN1CC2CC(NC(=O)N3CC(C)(C)c4ccccc43)CC(C1)N2C (stereo not drawn)	1		
CN1C2CC(NC(=O)N3CC(C)(C)c4ccccc43)CC1CN(Cc1ccccc1)C2 (stereo not drawn)		1.8	
CC(C)N1CC2CC(NC(=O)c3nn(C)c4ccccc34)CC(C1)N2C (stereo not drawn)	0.794		0.65
CC(C)CN1CC2CC(NC(=O)c3nn(C)c4ccccc34)CC(C1)N2C (stereo not drawn)	3.16		
